Data: patent publication US12344610B2, “APOL1 inhibitors and methods of use” (Maze Therapeutics, Inc., priority 2022, dated 2025)

Columns and labels:
Format in all cases: cell-based
APOL1 G2 = target: T1, APOL1 G2 (Homo sapiens, UniProt O14791, DEL388-389); assay: APOL1-mediated calcium transport (calcium influx) assay, HEK T-REx/GCaMP6f/APOL1 G2 K6.3 cells, FLIPR TETRA; details: prevention of calcium influx; geometric mean of at least 2 assay runs; † = average of a technical replicate from a single assay run
T1 construct: expressed in transfected cells; host or cells: HEK293 T-REx clonal line stably expressing GCaMP6f (HEK T-REx/GCaMP6f/APOL1 G2 K6.3), doxycycline induced
T1 sequence (O14791 with tags, fused parts or gaps DEL388-389): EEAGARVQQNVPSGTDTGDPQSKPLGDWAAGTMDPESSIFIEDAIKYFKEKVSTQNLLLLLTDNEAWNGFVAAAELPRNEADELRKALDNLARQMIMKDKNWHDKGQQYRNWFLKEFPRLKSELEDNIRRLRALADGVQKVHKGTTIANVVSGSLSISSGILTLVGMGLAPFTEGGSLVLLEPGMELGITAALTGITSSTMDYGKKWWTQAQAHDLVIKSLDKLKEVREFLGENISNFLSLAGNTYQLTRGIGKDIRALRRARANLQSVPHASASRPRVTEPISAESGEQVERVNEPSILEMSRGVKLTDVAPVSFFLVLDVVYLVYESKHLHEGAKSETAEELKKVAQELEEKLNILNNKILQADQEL
Experimental: A HEK293 clonal cell line was generated to stably express GCaMP6f, a genetically encoded calcium indicator, and inducibly express APOL1 G2 (HEK T-REx/GCaMP6f/APOL1 G2 K6.3). Cells were maintained in the following standard complete medium: DMEM with 4.5 g/L glucose and sodium pyruvate (BioWhittaker, Lonza, BE12-614F), supplemented with 10% FBS Performance Plus (Gibco, 16000044), 1% penicillin-streptomycin (BioWhittaker, DE17-602E), 2 mM ultraglutamine-1 (BioWhittaker cat. BE 17-605/U1), 50 μg/mL Zeocin (InvivoGen, ant-zn), 2.5 μg/mL Blasticidin (InvivoGen, ant-bl-5), and 25 μg/mL Hygromycin (InvivoGen, ant-hg). Standard propagation conditions consisted of plating 9×10^6, 4×10^6, 2×10^6 cells in a T225 flasks to be processed after 2, 3, or 4 days, respectively.
A source plate was generated containing 20 serially diluted compounds in DMSO (duplicate 8-point dose response). Next, 0.8 μL of compounds were transferred from the source plate to a destination plate prefilled with 79.2 μL of Ca^2+ free Tyrode's buffer (130 mM NaCl, 5 mM KCl, 1 mM MgCl2, 5 mM NaHCO3, 20 mM HEPES at pH 7.4). The destination plate was placed on a plate shaker (5 seconds at 2000 rpm) to mix. […] All transfer and mixing steps were conducted with an CyBi®-Well dispenser.
Cells were split by gently washing with DPBS (Euroclone, ECB4004L), followed by a 5-minute incubation (humidified, 37° C. with 5% CO2) with trypsin-EDTA solution (Euroclone, ECB3052D). Detached cells were diluted with standard complete medium without selective agents, counted, and plated in a 384 MTP microplate (GR4332CPL, Twin Helix) (10,000 cells/well in 25 μl/well) using a MATRIX WellMate dispenser. Plates were placed into a humidified incubator (37° C. with 5% CO2) overnight. The following day, 20 μL of doxycycline (Sigma, D9891) at 20 ng/mL in standard complete medium was added to cells with a CyBi® Drop dispenser to induce APOL1 G2 expression. After a 6-hour incubation (humidified, 37° C. with 5% CO2), cells were washed 3 times with Ca^2+ free Tyrode's Buffer (130 mM NaCl, 5 mM KCl, 1 mM MgCl2, 5 mM NaHCO3, 20 mM HEPES at pH 7.4) using a BIOTEK Microplate washer, such that 10 μL of buffer remained in each well after the final wash. Assay plates were then stored at room temperature for 10 minutes. Next, 10 μL of diluted compounds were transferred to the assay plate from the 2× compound plate using a CyBi®-Well dispenser. Compound incubation was then carried out at room temperature for 10 minutes. The assay plate was transferred to the FLIPR^TETRA and 20 μL of 10 mM Ca^2+ (final concentration=5 mM) Tyrode's buffer was injected.
Unless otherwise specified, AC50 and values are reported as the geometric mean of at least 2 assay runs on separate days. Each run represents the average of a technical replicate, where each compound was assayed twice in the same plate. A superscript t symbol indicates a value from the average of a technical replicate from a single assay run, where each compound was assayed twice in the same plate.
The AC50 values in Table 39 below reflect the compound's ability to prevent calcium influx by inhibiting APOL1. […] Compounds in Table 39 are referred to by the corresponding Compound Number in Table 1, which is also referred to in the synthetic examples. When one or more of the numbered compounds are identified by stereochemistry (for example, (R)- or (S)-), the specific stereoisomer for which data is provided in Table 39 may be identified by the elution order of such compound as described in the synthetic examples. For example, Compounds 39 and 40 are associated with Step 5 of Example 13, where Compound 39 is the first eluting enantiomer, and Compound 40 is the second eluting enantiomer in the chiral separation of Compound 38. For Table 39 below, n/a represents “not available”.

[1] = system: HEK293 cells overexpressing APOL1 G2; assay: APOL1 G2 HEK293 cell rescue assay (reversal of cell death caused by overexpression of APOL1); details: geometric mean of at least 2 assay runs, † = single assay run
Summary of the method: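 EC50 is the half-maximal effective concentration for reversing cell death driven by APOL1 G2 overexpression in HEK293 cells. Reported as geometric mean of at least 2 runs on separate days, each run averaging duplicate wells per plate; some values from a single run.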

[2] = system: HEK293 clonal cell line overexpressing APOL1 G1; assay: APOL1 G1 HEK293 cell rescue assay (Example B3); details: geometric mean of at least 2 runs, † = single run, ¥ = concentration at 50% rescue estimated (no sigmoidal curve)
Summary of the method: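 HEK293 clonal line overexpressing APOL1 G1; EC50 is half-maximal reversal of APOL1-induced cell death. Values are the geometric mean of ≥2 runs on separate days, each run the average of duplicate wells. Where no sigmoidal curve could be fitted, the concentration giving 50% rescue was estimated.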

[3] = HEK293 clonal line overexpressing APOL1 G1
[4] = Homo sapiens, HEK293, HEK293 overexpressing APOL1 G2
[5] = Homo sapiens, HEK293, HEK293 clonal line overexpressing APOL1 G1

Structure (SMILES): CC(COc1ccc(S(C)(=O)=O)cc1)N1CCC2(CC1)C(=O)N(C1CC(O)C1)c1ccc(Cl)cc12 (single isomer, unassigned) [Compound 208, 5-chloro-1′-[(2R) or (2S)-1-(4-methanesulfonylphenoxy)propan-2-yl]-1-[(cis) or (trans)-3-hydroxycyclobutyl]-1,2-dihydrospiro[indole-3,4′-piperidin]-2-one]
- AC50 (APOL1 G2): 1550 nM
- EC50 ([1]; HEK293 overexpressing APOL1 G2): 238 nM
- EC50 [2, 3]: 554 nM

Structure (SMILES): CC(COc1ccc(S(C)(=O)=O)cc1)N1CCC2(CC1)C(=O)N(C1CC(O)C1)c1ccc(Cl)cc12 (single isomer, unassigned) [Compound 209, 5-chloro-1′-[(2R) or (2S)-1-(4-methanesulfonylphenoxy)propan-2-yl]-1-[(trans) or (cis)-3-hydroxycyclobutyl]-1,2-dihydrospiro[indole-3,4′-piperidin]-2-one]
- AC50 (APOL1 G2): 1240 nM
- EC50 ([1]; HEK293 overexpressing APOL1 G2): 3070 nM
- EC50 [2, 3]: > 2840 nM

Structure (SMILES): C[C@@H](COc1cc(F)c(S(C)(=O)=O)c(F)c1)N1CCC2(CC1)C(=O)Nc1ccc(C#N)cc12 (single isomer, unassigned) [Compound 213]
- AC50 (APOL1 G2): 1120 nM
- EC50 [1, 4]: 189 nM
- EC50 [2, 5]: 497 nM

Structure (SMILES): CS(=O)(=O)c1ccc(OCCN2CCC3(CC2)C(=O)Nc2ccc(C#N)cc23)cc1C(F)CF (single isomer, unassigned) [Compound 222, 1′-(2-{3-[(1R or 1S)-1,2-difluoroethyl]-4-methanesulfonyl-phenoxy}ethyl)-2-oxo-1,2-dihydrospiro[in-dole-3,4′-piperidine]-5-carbonitrile]
- AC50 (APOL1 G2): 783 nM
- EC50 ([1]; HEK293 overexpressing APOL1 G2): 141 nM
- EC50 [2, 3]: 605 nM

Structure (SMILES): CC(COc1ccc(C2(S(C)(=O)=O)COC2)cc1)N1CCC2(CC1)C(=O)Nc1ccc(C#N)cc12 (single isomer, unassigned) [Compound 264, (R) or (S)-1′-{1-[4-(3-methanesulfonyloxetan-3-yl)phenoxy]propan-2-yl}-2-oxo-1,2-dihydrospiro[indole-3,4′-piperidine]-5-carbonitrile]
- AC50 (APOL1 G2): 1950 nM
- EC50 ([1]; HEK293 overexpressing APOL1 G2): 2250 nM
- EC50 [2, 3]: ~10000 nM

Structure (SMILES): C[C@]1(O)C[C@@H](n2ncc3cc(OCCN4CCC5(CC4)C(=O)Nc4ccc(C#N)cc45)cnc32)C1 (single isomer, unassigned) [Compound 437, 2-oxo-1′-[2-({1-[(cis)-3-hydroxy-3-methylcyclobutyl]-1H-pyrazolo[3,4-b]pyridin-5-yl}oxy)ethyl]-1,2-dihydrospiro[indole-3,4′-piperidine]-5-carbonitrile]
- AC50 (APOL1 G2): 612 nM
- EC50 [1, 4]: 112 nM
- EC50 [2, 5]: 186 nM

Structure (SMILES): CS(=O)(=O)c1ccc(OCCN2CCC3(CC2)C(=O)Nc2c(Cl)cc(Cl)cc23)cc1 [Compound 7, 5,7-dichloro-1′-[2-(4-methanesulfonylphenoxy)ethyl]-1,2-dihydrospiro[indole-3,4′-piperidin]-2-one]
- AC50 (APOL1 G2): 601 nM
- EC50 [1, 4]: 279 nM
- EC50 [2, 5]: 764 nM

Structure (SMILES): CS(=O)(=O)c1ccc(OCCN2CCC3(CC2)C(=O)Nc2c(Cl)cc(C#N)cc23)cc1 [Compound 8, 7-chloro-1′-[2-(4-methanesulfonylphenoxy)ethyl]-2-oxo-1,2-dihydrospiro[indole-3,4′-piperidine]-5-carbonitrile]
- AC50 (APOL1 G2): 833 nM
- EC50 [1, 4]: 598 nM
- EC50 [2, 5]: 1440 nM

Structure (SMILES): CS(=O)(=O)c1ccc(OCCN2CCC3(CC2)C(=O)N([C@H]2C[C@@H](O)C2)c2ccccc23)cc1 [Compound 19, 1′-[2-(4-methanesulfonylphenoxy)ethyl]-1-[(cis)-3-hydroxycyclobutyl]-1,2-dihydrospiro[indole-3,4′-piperidin]-2-one]
- AC50 (APOL1 G2): 481 nM
- EC50 [1, 4]: 794 nM
- EC50 [2, 5]: 4810 nM

Structure (SMILES): COCCN1C(=O)C2(CCN(CCOc3ccc(S(C)(=O)=O)cc3)CC2)c2ccccc21 [Compound 21, 1′-[2-(4-methanesulfonylphenoxy)ethyl]-1-(2-methoxyethyl)-1,2-dihydrospiro[indole-3,4′-piperidin]-2-one]
- AC50 (APOL1 G2): < 213 nM
- EC50 [1, 4]: 1270 nM
- EC50 [2, 5]: > 14400 nM

Structure (SMILES): CS(=O)(=O)c1ccc(OCCN2CCC3(CC2)C(=O)N(C2COC2)c2ccc(Cl)cc23)cc1 [Compound 22, 5-chloro-1′-(2-(4-(methylsulfonyl)phenoxy)ethyl)-1-(oxetan-3-yl)spiro[indoline-3,4′-piperidin]-2-one]
- AC50 (APOL1 G2): 306 nM
- EC50 [1, 4]: 232 nM
- EC50 [2, 5]: 580 nM

Structure (SMILES): CC(COc1ccc(S(C)(=O)=O)cc1)N1CCC2(CC1)C(=O)Nc1ccccc12 (stereo not drawn) [Compound 28, 1′-(1-(4-(methylsulfonyl)phenoxy)propan-2-yl)spiro[indoline-3,4′-piperidin]-2-one]
- AC50 (APOL1 G2): < 434 nM
- EC50 [1, 4]: 799 nM
- EC50 [2, 5]: 655 nM

Structure (SMILES): CN1C(=O)C2(CCN(CCOc3ccc4ncn(C)c(=O)c4c3)CC2)c2ccccc21 [Compound 29, 1-methyl-1′-{2-[(3-methyl-4-oxo-3,4-dihydroquinazolin-6-yl)oxy]ethyl}-1,2-dihydrospiro[indole-3,4′-piperidin]-2-one]
- AC50 (APOL1 G2): 586 nM
- EC50 [1, 4]: 1420 nM
- EC50 [2, 5]: 5560 nM

Structure (SMILES): CN1Cc2cc(OCCN3CCC4(CC3)C(=O)N(C)c3ccccc34)ccc2C1=O [Compound 30, 1-methyl-1′-{2-[(2-methyl-1-oxo-2,3-dihydro-1H-isoindol-5-yl)oxy]ethyl}-1,2-dihydrospiro[indole-3,4′-piperidin]-2-one]
- AC50 (APOL1 G2): 409 nM
- EC50 [1, 4]: 1480 nM
- EC50 [2, 5]: > 22500 nM

Structure (SMILES): CN1C(=O)C2(CCN(CCOc3ccc(-c4cnn(C)c4)cc3)CC2)c2ccccc21 [Compound 31, 1-methyl-1′-{2-[4-(1-methyl-1H-pyrazol-4-yl)phenoxy]ethyl}-1,2-dihydrospiro[indole-3,4′-piperidin]-2-one]
- AC50 (APOL1 G2): 370 nM
- EC50 [1, 4]: 810 nM
- EC50 [2, 5]: 1570 nM
